Data reported in patent US8361967B2, “Beta sheet inhibiting peptides for preventing and/or treating Alzheimer's Disease” (Tianjin Medical University, priority 2008, dated 2013).
No end group written: not given here.

Tests used:
[1] = system: human neuroblastoma SH-SY5Y cells; test: Cytotoxicity test (MTT): viability of SH-SY5Y cells incubated with Aβ1-42; assay type: cell-based; conditions: 72 hours
Protocol: 5. Cytotoxicity test: a commonly-used cell line, human neuroblastoma SH-SY5Y, was used in the assay of cytotoxcity, which was purchased from Xuanwu Hospital of Capital Medical University and cultured in MEM medium (supplemented with 10% (v/v) fetal bovine serum) by conventional methods, in a 37° C., 5% CO2 incubator. The cell line was subcultured once every 5 days. When the SH-SY5Y cells grew stably in the logarithmic phase, the cells were inoculated into a 96 well plates (Costar) in a density of 1.0×10^4/ml, with 200 μl of medium added per well. After 24 hours, the medium was replaced by serum-free medium, and Aβ1-42 was added to the concentration of 5 μmol/L. The wells were divided into several groups. […] At 72 hours after the addition of the polypeptides, 20 μl of 3-(4,5-dimethyl-2-thiazolyl)-2,5-diphenyltetrazole bromide (MTT) (5 mg/ml) was added into each well, and the plate was incubated at 37° C. for 4 hours. Then the original culture medium was discarded, and 200 μl of DMSO was added into each well. The plate was left to stand for 10 min and then shaken for 1 min, allowing the Formazane particles to be completely dissolved. Then the optical density (OD) at 492 nm was measured on an automatic microplate reader.

APP 695 transgenic mice [2] = test: Immunohistochemical staining of hippocampal CA1 neurons (anti-APP N-terminal and anti-Aβ antibody) in APP 695 transgenic mice; assay type: in vivo; conditions: intracerebroventricular 3 μl of 40 μmol/L daily for 10 days
Description: (§1) Experimental animals: thirty APP 695 transgenic mice of nine-month-old and ten C57BL/6J mice which are matched in genetic background and age, were all purchased from the experimental animal research center of Peking Union Medical College, Chinese Academy of Medical Sciences.
(§2) Animal grouping and model preparation: the thirty APP 695 transgenic mice were randomly divided into model group of 15 mice and the polypeptide-injected group of 15 mice. Ten C57BL/6J mice were used as a normal control group. For the polypeptide-injected group, the animals were received intracerebroventricular injection of 3 μl of saline solution containing H102 of 40 μmol/L each time. For the control group and model group, the animals were received intracerebroventricular injection of 3 μl of normal saline solution each time. The injection was carried out daily for 10 days. All animals were kept in the same conditions in SPF-grade mice room in the experimental animal research center of Tianjin Medical University
(§3) The animals were anaesthetized intraperitoneally by 10% chloral hydrate at a dose of 400 mg/Kg weight. The animals were fixed on a brain stereotaxic frame, and the hair was cut off. After disinfection with Anerdian, the skin was incised along the midline of the head for about 1 cm. The periosteum was stripped to expose the bone marks. […]

Aβ1-42 peptide [3] = molecular target: T1, Aβ1-42 peptide (Homo sapiens, UniProt P05067); test: Electron microscopy of Aβ1-42 fibril formation; assay type: biochemical; parameters: Reagents: Aβ1-42 (purity >98%); purchased Sigma-Aldrich, Inc; conditions: peptide 44.30 μmol/L with Aβ1-42 11.07 μmol/L, 37° C., 5 days; for length of formed Aβ fibrils: Aβ alone about 0.5 to 5 μm; for diameter of formed Aβ fibrils: Aβ alone about 8 to 10 nm
Protocol: 4. […] Samples of 5 μl were taken from each group, dropped onto a 300-mesh deionized copper mesh with carbon support film, and left to stand at room temperature for 15 min. The samples were negatively stained in dark by 2% uranyl acetate for 2 min. After drying, the samples were observed under a transmission electron microscope.

APP 695 transgenic mice [4] = test: Congo Red staining of amyloid plaques in temporal cortex and hippocampus of APP 695 transgenic mice; assay type: in vivo; conditions: intracerebroventricular 3 μl of 40 μmol/L daily for 10 days
Description: as §1, §2, §3

Aβ1-42 peptide [5] = molecular target: T1, Aβ1-42 peptide; conditions: for ThT fluorescence intensity over time vs Aβ1-42 alone: 44.30 μmol/L with Aβ1-42 11.07 μmol/L, 37° C., 12 h to 7 d; for dose dependence of effect on Aβ fibril formation / most effective concentration for inhibition of Aβ fibril formation: 10-100 μmol/L with Aβ1-42 11.07 μmol/L; for dose dependence of effect on Aβ fibril formation / effect on Aβ1-42 aggregation and fibril formation (ThT, FIG. 2) / most effective concentration for inhibition of Aβ fibril formation / Inhibition (%) of Aβ aggregation: 37° C. for 24 h; for effect on Aβ1-42 aggregation and fibril formation (ThT, FIG. 2) / Inhibition (%) of Aβ aggregation: Aβ1-42 11.07 μmol/L, test substance 44.30 μmol/L; for most effective concentration for inhibition of Aβ fibril formation: dose-effect; for Inhibition (%) of Aβ aggregation: Aβ1-42 alone = 100% fluorescence
Protocol: 2. […] Each solution was incubated at 37° C. for 24 h, and 10 μl was taken out from each group and added into 990 μl of 3.0 μmol/L ThT phosphate buffer. ThT fluorescence intensity was measured at the excitation wavelength of 453 nm and emission wavelength of 478˜486 nm.
3. The dose-effect and time-effect relationships of the polypeptides of the invention on Aβ1-42: polypeptide H102 was formulated in PBS (as described above) to obtain a series of concentrations, and Aβ1-42 was added into the solutions to the concentration of 11.07 μmol/L. The resulted solutions were incubated at 37° C. for 24 hours, and samples were taken and measured for ThT fluorescence intensity, in order to determine the dose-effect relationship of the polypeptides of the invention on Aβ1-42. Solutions containing H102 of 44.30 μmol/L and Aβ1-42 of 11.07 μmol/L, or Vitamin E of 44.30 μmol/L and Aβ1-42 of 11.07 μmol/L, respectively, were incubated at 37° C. Samples were taken and measured for ThT fluorescence intensity at the time points of 12 hours (12 h), 1 day (1 d), 3 days (3 d), 5 days (5 d) and 7 days (7 d) after the incubation, in order to determine the time-effect relationships of various polypeptides on Aβ1-42.

Substance	effect on viability of SH-SY5Y cells ([1]; 10, 20 and 40 μmol/L with Aβ1-42 5 μmol/L)	optimal concentration to improve the viability of cells ([1]; Aβ1-42 5 μmol/L) [µmol/L]	amount of Aβ1-42 positive cells in brain CA1 area vs model group (APP 695 transgenic mice [2])	length of formed Aβ fibrils (Aβ1-42 peptide [3]) [μm]	diameter of formed Aβ fibrils (Aβ1-42 peptide [3]) [nm]	amyloid plaques (Congo red) vs transgenic model group (APP 695 transgenic mice [4])	T1/2, time point at which the fluorescence intensity reaches the half-peak (Aβ1-42 peptide [5])	ThT fluorescence intensity over time vs Aβ1-42 alone (Aβ1-42 peptide [5])	dose dependence of effect on Aβ fibril formation (Aβ1-42 peptide [5])	effect on Aβ1-42 aggregation and fibril formation (ThT, FIG. 2) (Aβ1-42 peptide [5])	most effective concentration for inhibition of Aβ fibril formation (Aβ1-42 peptide [5])	Inhibition (%) of Aβ aggregation (Aβ1-42 peptide [5]) [%]
HKQLPFFEED [H102]	most effective to improve the viability of cells	20	much lower than that of the model group	0.3 to 3	3 to 6	much lower in the number and size	fourth day	significantly weaker at each time point	dose-dependent	remarkably inhibit	about 20 μmol/L	–
Leu-Pro-Phe-Phe-Asp (LPFFD; printed: Leu-Pro-Phe-Phe-Asp) [L5, reference compound]	–	–	–	0.3 to 5	4 to 8	–	–	–	–	–	–	25.74
Vitamin E	–	–	–	–	–	–	fourth day	significantly weaker at each time point	dose-dependent	remarkably inhibit	about 20 μmol/L	24.85
